Measured values from patent publication US10370401B2, “Substituted nucleosides, nucleotides and analogs thereof” (Alios BioPharma, Inc., priority 2013, dated 2019).
Where two headings read alike, the source gives them in different places.

How the values were obtained:
[1] = tested on: Human rhinovirus 1B; assay: Picornavirus assay (CPE, CellTiter-Glo, HeLa-OHIO cells); assay type: cell-based; conditions: Rhinovirus A, 96 h
[2] = tested on: subgenomic HCV replicon; assay: HCV replicon assay (Huh-7, luciferase reporter); assay type: cell-based; conditions: Hepatitis C virus
[3] = target: NS5B570-Con1 (Delta-21) (Hepatitis C virus genotype 1b, UniProt Q9WMX2); assay: biochemical; parameters: species or system HCV
[4] = target: human rhinovirus 16 polymerase (HRV16pol) (Human rhinovirus 16, UniProt Q82122); assay: biochemical; conditions: HRV16pol, 2.5 h at 30° C., mean of several independent experiments; read-out: IC50
[5] = Human rhinovirus 1B, HeLa-OHIO cells, 4 d at 33° C., read-out: EC50
[6] = Huh-7 HCV replicon cells, luciferase, 72 hours, read-out: EC50

human rhinovirus 16 polymerase (HRV16pol), sequence (Q82122 1694-2153 limits assumed): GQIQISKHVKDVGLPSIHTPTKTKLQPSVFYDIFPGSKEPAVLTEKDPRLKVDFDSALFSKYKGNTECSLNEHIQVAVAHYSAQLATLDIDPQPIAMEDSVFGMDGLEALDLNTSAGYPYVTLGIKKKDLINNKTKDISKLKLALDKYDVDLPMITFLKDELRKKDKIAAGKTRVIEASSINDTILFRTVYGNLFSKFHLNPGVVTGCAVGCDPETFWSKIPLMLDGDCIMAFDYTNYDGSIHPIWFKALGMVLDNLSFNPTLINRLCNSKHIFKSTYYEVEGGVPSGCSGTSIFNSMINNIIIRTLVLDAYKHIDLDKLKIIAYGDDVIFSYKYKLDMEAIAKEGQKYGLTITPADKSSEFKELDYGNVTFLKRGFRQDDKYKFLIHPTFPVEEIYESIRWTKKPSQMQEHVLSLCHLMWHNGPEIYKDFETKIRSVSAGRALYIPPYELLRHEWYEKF

Structure (SMILES)	EC50 [1, 5] [µM]	EC50 [2, 6] [µM]	other results
[N-]=[N+]=NC[C@]1(CO)O[C@@H](n2ccc(N)nc2=O)[C@H](F)[C@@H]1O [Compound 106]	1 to 10	10 to 100	–
CC(C)OC(=O)OCOP(=O)(OCOC(=O)OC(C)C)OC[C@@]1(CF)O[C@@H](n2ccc(=O)[nH]c2=O)[C@](C)(O)[C@@H]1OC(=O)[C@H](C)N [Compound 281]	–	–	EC50 [1]: < 1 µM; EC50 ([2]; Huh-7, 72 h): < 1 µM
CCOc1nc(N)nc2c1ncn2[C@@H]1O[C@](F)(COP(=O)(OCOC(=O)OC(C)C)OCOC(=O)OC(C)C)[C@@H](F)[C@@]1(C)O [Compound 57]	< 1	< 1	–
CC(C)(CO)C(=O)SCCOP(=O)(OCCSC(=O)C(C)(C)CO)OC[C@@]1(CF)O[C@@H](n2ccc(=O)[nH]c2=O)[C@](C)(O)[C@@H]1O [Compound 288]	–	–	EC50 [1]: 10 to 100 µM; EC50 ([2]; Huh-7, 72 h): 10 to 100 µM
C#C[C@@]1(O)[C@H](O)[C@@](CCl)(COP(=O)(OCOC(=O)OC(C)C)OCOC(=O)OC(C)C)O[C@H]1n1cnc2c(N)ncnc21 [Compound 64]	1 to 10	10 to 100	–
Nc1ncnc2c1ncn2[C@@H]1O[C@H](CO)[C@@H](O)[C@]1(O)CF [compound 301]	10 to 100	< 1	–
C[C@]1(CO)O[C@@H](n2ccc(N)nc2=O)C(F)(F)[C@@H]1O [compound 300]	< 1	10 to 100	–
CCOc1nc(N)nc2c1ncn2[C@@H]1O[C@](F)(COP(=O)(N[C@@H](C)C(=O)OCC(C)(C)C)Oc2ccccc2)[C@@H](F)[C@@]1(C)O (stereo partly drawn) [Compound 21]	–	–	EC50 [1]: < 1 µM; EC50 ([2]; Huh-7, 72 h): 1 to 10 µM
COC(=O)OCOP(=O)(OCOC(=O)OC)OC[C@@]1(CF)O[C@@H](n2ccc(=O)[nH]c2=O)[C@](C)(O)[C@@H]1O [Compound 65]	10 to 100	10 to 100	–
CC(C)(CO)C(=O)SCCOP(=O)(NCc1ccccc1)OC[C@@]1(CF)O[C@@H](n2ccc(=O)[nH]c2=O)[C@](C)(O)[C@@H]1O (stereo partly drawn) [Compound 280]	10 to 100	10 to 100	–
CC(C)OC(=O)OCOP(=O)(N[C@@H](C)C(=O)OC(C)C)OC[C@@]1(CF)O[C@@H](n2ccc(=O)[nH]c2=O)[C@](C)(O)[C@@H]1O (stereo partly drawn) [Compound 286]	1 to 10	< 1	–
N#C[C@]1(CO)O[C@@H](n2ccc(N)nc2=O)C(F)(F)[C@@H]1O [Compound 298]	1 to 10	10 to 100	–
CC(C)OC(=O)OCOP(=O)(OCOC(=O)OC(C)C)OC[C@@]1(CF)O[C@@H](n2ccc(=O)n(COC(=O)C(N)C(C)C)c2=O)[C@](C)(O)[C@@H]1O (stereo partly drawn) [Compound 52]	–	–	EC50 [1]: < 1 µM; EC50 ([2]; Huh-7, 72 h): < 1 µM
CCOc1nc(N)nc2c1ncn2[C@@H]1O[C@](F)(COP(=O)(N[C@@H](C)C(=O)OC(C)C)Oc2ccccc2)[C@@H](F)[C@@]1(C)O (stereo partly drawn) [Compound 22]	–	–	EC50 [1]: 1 to 10 µM; EC50 ([2]; Huh-7, 72 h): 1 to 10 µM
CC(C)OC(=O)OCOP(=O)(OCOC(=O)OC(C)C)OC[C@@]1(CCl)O[C@@H](n2ccc(=O)[nH]c2=O)[C@](C)(O)[C@@H]1O [Compound 43]	10 to 100	< 1	–
CC(C)OC(=O)OCOP(=O)(OCOC(=O)OC(C)C)OC[C@@]1(CF)O[C@@H](n2cnc3c(N)ncnc32)[C@](C)(O)[C@@H]1O [Compound 84]	< 1	1 to 10	–
C#C[C@@]1(O)[C@H](O)[C@@](CF)(COP(=O)(OCOC(=O)OC(C)C)OCOC(=O)OC(C)C)O[C@H]1n1cnc2c(N)ncnc21 [Compound 63]	< 1	1 to 10	–
Nc1ccn([C@@H]2O[C@H](CO)[C@@H](O)[C@]2(O)CF)c(=O)n1 [Compound 295]	10 to 100	1 to 10	–

Structure (SMILES)	EC50 [1, 5] [µM]	EC50 [2, 6] [µM]	other results
C=C[C@]1(CO)O[C@@H](n2ccc(N)nc2=O)[C@H](O)[C@@H]1O [compound 303]	10 to 100	1 to 10	–
C=C[C@]1(O)[C@H](n2ccc(=O)[nH]c2=O)O[C@](F)(COP(=O)(O)OP(=O)(O)OP(=O)(O)O)[C@H]1O [compound 236]	–	–	IC50 [3]: 1 to 10 µM; IC50 [4]: < 10 µM
CCOC(=O)OCOP(=O)(OCOC(=O)OCC)OC[C@@]1(CF)O[C@@H](n2ccc(=O)n(COC(=O)C(N)C(C)C)c2=O)[C@](C)(O)[C@@H]1O (stereo partly drawn) [Compound 71]	–	–	EC50 [1]: 1 to 10 µM; EC50 ([2]; Huh-7, 72 h): 1 to 10 µM
CCOc1nc(N)nc2c1ncn2[C@@H]1O[C@](CF)(COP(=O)(N[C@@H](C)C(=O)OC2CCCCC2)Oc2ccccc2)[C@@H](O)[C@@]1(C)O (stereo partly drawn) [Compound 36]	–	–	EC50 [1]: < 1 µM; EC50 ([2]; Huh-7, 72 h): < 1 µM
Nc1ccn([C@@H]2O[C@H](COP(=O)(O)OP(=O)(O)OP(=O)(O)O)[C@@H](O)[C@]2(O)CF)c(=O)n1 [compound 276]	–	–	IC50 [3]: < 1 µM; IC50 [4]: < 10 µM
C=C[C@]1(CO)O[C@@H](n2ccc(N)nc2=O)C(F)(F)[C@@H]1O [Compound 75]	1 to 10	–	EC50 ([2]; Huh-7, 72 h): 10 to 100 µM
CC(C)OC(=O)OCOP(=O)(OCOC(=O)OC(C)C)OC[C@@]1(CF)O[C@@H](n2ccc(=O)n(COP(=O)(O)O)c2=O)[C@](C)(O)[C@@H]1O [Compound 284]	1 to 10	1 to 10	–
CC(=O)OCOP(=O)(OCOC(C)=O)OC[C@@]1(CF)O[C@@H](n2ccc(=O)[nH]c2=O)[C@](C)(O)[C@@H]1O [Compound 67]	–	10 to 100	–
C[C@@]1(O)[C@H](O)[C@@](CF)(COP(=O)(O)OP(=O)(O)OP(=O)(O)O)O[C@H]1n1ccc2c(N)ncnc21 [compound 254]	–	–	IC50 [3]: < 1 µM; IC50 [4]: < 1 µM
Nc1ncnc2c1ncn2[C@@H]1O[C@H](COP(=O)(O)OP(=O)(O)OP(=O)(O)O)[C@@H](O)[C@]1(O)CF [compound 278]	–	–	IC50 [3]: 1 to 10 µM; IC50 [4]: < 100 µM
O=c1ccn([C@@H]2O[C@](CF)(COP(=O)(O)OP(=O)(O)OP(=O)(O)O)[C@@H](O)[C@]2(O)CF)c(=O)[nH]1 [compound 256]	–	–	IC50 [3]: 10 to 100 µM; IC50 [4]: < 10 µM
C[C@@]1(Cl)[C@H](O)[C@@H](COP(=O)(O)OP(=O)(O)OP(=O)(O)O)O[C@H]1n1cnc2c(=O)[nH]c(N)nc21 [compound 246]	–	–	IC50 [3]: < 1 µM; IC50 [4]: < 1 µM
CC(C)OC(=O)[C@H](C)NP(=O)(OCCSC(=O)C(C)(C)CO)OC[C@@]1(CF)O[C@@H](n2ccc(=O)[nH]c2=O)[C@](C)(O)[C@@H]1O (stereo partly drawn) [Compound 283]	10 to 100	1 to 10	–
C=C=C[C@@]1(O)[C@H](O)[C@@](CF)(COP(=O)(O)OP(=O)(O)OP(=O)(O)O)O[C@H]1n1ccc(=O)[nH]c1=O [compound 255]	–	–	IC50 [3]: 1 to 10 µM; IC50 [4]: < 10 µM
CC(C)C(=O)OCOP(=O)(OCOC(=O)C(C)C)OC[C@@]1(CF)O[C@@H](n2ccc(=O)[nH]c2=O)[C@](C)(O)[C@@H]1O [Compound 70]	1 to 10	1 to 10	–
C#C[C@@]1(O)[C@H](O)[C@@](CCl)(COP(=O)(O)OP(=O)(O)OP(=O)(O)O)O[C@H]1n1cnc2c(N)ncnc21 [compound 245]	–	–	IC50 [3]: 10 to 100 µM; IC50 [4]: < 1 µM
CC(C)OC(=O)OCOP(=O)(OCOC(=O)OC(C)C)OC[C@@]1(CF)O[C@@H](n2ccc(=O)[nH]c2=O)[C@](C)(O)[C@@H]1OC(=O)CN [Compound 282]	–	–	EC50 [1]: < 1 µM; EC50 ([2]; Huh-7, 72 h): < 1 µM
